In patent publication US20160007597A1, “TREATING AGENT FOR PLANT CELL WALLS, SUBSTANCE DELIVERY METHOD USING TREATING AGENT, AND SUBSTANCE DELIVERY SYSTEM” (SUNTORY HOLDINGS LIMITED, priority 2013, published 2016):
Like-named read-outs stand apart in the source and are kept apart here.

Key:
[1] = system: onion epidermal cells; test: Cell wall permeability: intracellular uptake of GFP or GFP-FT in onion bulb epidermal cells after trypsin treatment (fluorescence microscopy); type: cell-based; settings: 0.1 mg GFP, 20 μM R9 peptide
Protocol: Various test solutions containing a fluorescent protein, GFP or GFP-FT, and the R9 peptide were prepared and applied to onion bulbs for verification of GFP uptake. The ingredients of the test solutions verified are shown below:
salt (NaCl), acidic buffer (citric acid), organic solvent (toluene, ethanol), cell wall lyase (pectolyase), surfactant (saponin, Silwet L-77, Tween 20, Triton X-100, CHAPS, CTAB, SDS), chelator (EGTA, EDTA, CDTA, BAPTA), DMSO, and glycerol.
Onion bulbs were cut into boat-shaped pieces, and test solutions (100 μl each) prepared at various concentration conditions (0.1× PBS, 1 to 100 mM chelator, 0.005% to 0.05% surfactant, 0.1 mg GFP, 20 μM R9 peptide) were applied to their surface. Each sample was allowed to stand in a dish at room temperature for 12 hours while being kept under humid conditions. Then, the test solutions were removed and the samples were washed with distilled water. After a 0.25% trypsin solution was applied in 100 μl volumes, the samples were allowed to stand for 30 minutes. After removal of the trypsin solution, the samples were washed with distilled water and their epidermal cell layers were peeled to prepare specimens, which were then observed for intracellular uptake of GFP under a fluorescence microscope (Leica, DM6000B).

[2] = system: leaves
Protocol: To verify the migration of the FT protein applied to leaves, the shoot apex after application was sampled and analyzed by Western blotting in an attempt to detect the FT protein. To ensure long-term application to leaves, concentration studies were conducted for EDTA.

[3] = system: in vitro shoots of torenia; test: Induction of flower buds in in vitro shoots of torenia; type: in vivo; settings: torenia in test tubes; 33 μg/ml FT protein, 20 μM R9 peptide, 0.1× PBS, 1 mM EDTA, 0.005% Silwet L-77; applied five times every 2 to 3 days
Protocol: (§1) In most cases, in vitro shoots of torenia will form no flower buds in test tubes. Likewise, in vitro shoots of petunia will form no flower buds under short-day conditions. In these in vitro shoots, the FT protein was applied to their leaf surface in an attempt to induce flower buds. To the shoot apex and leaf surface of torenia and petunia cultivated in test tubes, a test solution (33 μg/ml FT protein, 20 μM R9 peptide, 0.1× PBS, 1 mM EDTA, 0.005% Silwet L-77) was applied by being spread thinly to ensure a uniform distribution. Application was repeated five times every 2 to 3 days, and culture was also continued thereafter. As a result, flower buds were formed at around 40 days after application and eventually brought into flower in test tubes (FIG. 4).

[4] = system: torenia bud cuttings (shoot apex); test: Migration of FT protein applied to leaves to the shoot apex, detected by Western blotting; type: in vivo; settings: Condition 3: FT protein, 20 μM R9 peptide, 0.1× PBS, 1 mM EDTA, 0.005% Silwet L-77, applied to leaves twice; sampled one week after the first application
Protocol: Bud cuttings were prepared from torenia's branches each including the shoot apex. These branches were cut to an even length of approximately 10 cm containing three nodes or so, each of which was put into a 5 ml tube containing 4 ml of 0.1× PBS, followed by covering the mouth of each tube with a parafilm to avoid evaporation of PBS. Four bud cuttings were prepared for each test group, and test solutions (90 μl each) prepared under three conditions (Condition 1: 0.1× PBS, 1 mM EDTA, 0.005% Silwet L-77; Condition 2: 33 μg/ml FT protein, 0.1× PBS, 1 mM EDTA, 0.005% Silwet L-77; Condition 3: FT protein, 20 μM R9 peptide, 0.1× PBS, 1 mM EDTA, 0.005% Silwet L-77) were applied by being spread thinly over leaves at a position which was two nodes (about 3 cm) apart from the shoot apex. After air drying, these samples were maintained at 25° C. in a thermostatic incubator.
After 3 days, the test solutions were applied again, and after one week of the first application, the shoot apexes were sampled. Proteins were extracted from the shoot apex samples by the acetone method. 250 μl of an extraction buffer (10 mM Tris-HCl (pH 8.0), 0.1% CHAPS, 4.5 mM NaCl, 0.1 mM DTT, 0.2 mM EDTA, complete ULTRA1 tablets (Roche Diagnostics)) was added to each shoot apex sample obtained from 4 bud cuttings, followed by sufficient homogenization in a mixer together with zirconia beads of 4 mm diameter. […]

[5] = system: in vitro shoots of petunia; test: Induction of flower buds in in vitro shoots of petunia; type: in vivo; settings: petunia in test tubes; 33 μg/ml FT protein, 20 μM R9 peptide, 0.1× PBS, 1 mM EDTA, 0.005% Silwet L-77; applied five times every 2 to 3 days
Protocol: as §1

[6] = system: protoplasts of torenia; test: GFP uptake into torenia protoplasts in the presence of R9 peptide (fluorescence microscopy); type: cell-based; settings: 0.1 mg GFP
Protocol: To verify that the R9 peptide was also evenly effective for plant cells other than cultured cells, protoplasts of torenia were used and observed for their uptake of green fluorescent protein (GFP) in the presence of the R9 peptide. Torenia leaves (0.5 g) were treated in an enzyme solution (1% Onozuka RS, 0.1% pectolyase Y-23, 0.45 M mannitol) at 30° C. for 2 hours to prepare protoplasts. The protoplasts were washed with 0.45 M mannitol and then divided into 50 μl aliquots, followed by centrifugation to prepare protoplasts. The protoplasts were each suspended in 50 μl of a buffer (0.45 M mannitol, 1× PBS, 0.1 mg GFP, (0, 20, 200 μM) R9 peptide) and observed for intracellular migration of GFP under a fluorescence microscope (FIG. 1).

[7] = combination of 1 to 50 mM EDTA or EGTA and 0.005% to 0.01% Silwet L-77 or Tween 20, 12 hours

## O=C(O)CN(CCN(CC(=O)O)CC(=O)O)CC(=O)O [EDTA, ethylenediaminetetraacetic acid]
[1]; [7]
  intracellular GFP fluorescence after trypsin treatment: granular GFP fluorescence was strongly observed
[2]; 1 mM EDTA
  damage to leaves: able to be used without any problems
[2]; 100 mM EDTA
  damage to leaves: cause damage to leaves

## O=C(O)CN(CCOCCOCCN(CC(=O)O)CC(=O)O)CC(=O)O [EGTA, O,O′-bis(2-aminoethyl)ethylene glycol-N,N,N′,N′-tetraacetic acid]
[1]; [7]
  intracellular GFP fluorescence after trypsin treatment: granular GFP fluorescence was strongly observed

## FT protein: FLOWERING LOCUS T protein, promoter for flowering in whole plants (florigen)
[3]
  time of flower bud formation after application: around 40 days
[4]
  FT protein signal in the shoot apex (Western blotting): FT protein signals were able to be detected in the shoot apex
[5]
  time of flower bud formation after application: around 40 days

## R9 peptide: cell penetrating peptide composed of 9 arginine residues (RRRRRRRRR)
[1]; chelator-free and surfactant-free test solution, 12 hours at room temperature
  intracellular GFP fluorescence after trypsin treatment: no fluorescence was observed within the cells
[6]; 0, 20, 200 μM R9 peptide
  number of cells showing GFP uptake with increase in R9 peptide concentration: cells showing GFP uptake were confirmed to increase in number
[6]; 200 μM R9 peptide, 0.45 M mannitol, 1× PBS
  GFP uptake into protoplasts: good GFP uptake was observed

## polyoxyethylene sorbitan monolaurate [Tween 20]
[1]; [7]
  intracellular GFP fluorescence after trypsin treatment: granular GFP fluorescence was strongly observed
